Laboratory results published in ChEMBL document CHEMBL3822357, “New Atglistatin closely related analogues: Synthesis and structure-activity relationship towards adipose triglyceride lipase inhibition” (Eur J Med Chem, 2016).
The source made the active and inactive calls. The calls are words filed in the database; no cut-off is given here.

Assays:
[1] = target: T1, Patatin-like phospholipase domain-containing protein 2 (Mus musculus) (UniProt Q8BJ56); assay: Inhibition of ATGL in mouse 3T3L1 cells assessed as inhibition of isoproterenol-stimulated lipolysis by measuring reduction in glycerol release in media at 20 uM preincubated for 4 hrs followed by isoproterenol addition measured after 1 hr by colorimetric assay; assay type: cell-based; conditions: 3T3-L1
T1 sequence (whole entry): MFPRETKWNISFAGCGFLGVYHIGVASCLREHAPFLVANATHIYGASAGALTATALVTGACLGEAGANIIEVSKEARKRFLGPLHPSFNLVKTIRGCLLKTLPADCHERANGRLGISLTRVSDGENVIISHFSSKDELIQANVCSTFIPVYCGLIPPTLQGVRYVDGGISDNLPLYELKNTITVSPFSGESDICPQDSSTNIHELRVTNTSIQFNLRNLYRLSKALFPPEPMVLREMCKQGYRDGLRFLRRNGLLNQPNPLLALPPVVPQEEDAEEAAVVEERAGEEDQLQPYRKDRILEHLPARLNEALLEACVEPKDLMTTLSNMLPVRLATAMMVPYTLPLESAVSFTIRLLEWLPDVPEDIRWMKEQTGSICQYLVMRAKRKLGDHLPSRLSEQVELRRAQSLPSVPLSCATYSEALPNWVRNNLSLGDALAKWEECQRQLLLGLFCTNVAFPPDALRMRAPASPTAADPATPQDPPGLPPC

[2] = target: T1, Patatin-like phospholipase domain-containing protein 2 (Mus musculus); assay: Inhibition of ATGL in mouse 3T3L1 cells assessed as inhibition of isoproterenol-stimulated lipolysis by measuring reduction in non-esterified fatty acid release in media at 20 uM preincubated for 4 hrs followed by isoproterenol addition measured after 1 hr by colorimetric assay; assay type: cell-based; conditions: 3T3-L1
[3] = target: T2, Patatin-like phospholipase domain-containing protein 2 (Homo sapiens, UniProt Q96AD5); assay: Inhibition of ATGL (unknown origin) overexpressed in Escherichia coli XL-1 cells using [9,10-3H(N)]triolein as substrate incubated for 60 mins by liquid scintillation counting method
T2 sequence (Q96AD5 whole entry): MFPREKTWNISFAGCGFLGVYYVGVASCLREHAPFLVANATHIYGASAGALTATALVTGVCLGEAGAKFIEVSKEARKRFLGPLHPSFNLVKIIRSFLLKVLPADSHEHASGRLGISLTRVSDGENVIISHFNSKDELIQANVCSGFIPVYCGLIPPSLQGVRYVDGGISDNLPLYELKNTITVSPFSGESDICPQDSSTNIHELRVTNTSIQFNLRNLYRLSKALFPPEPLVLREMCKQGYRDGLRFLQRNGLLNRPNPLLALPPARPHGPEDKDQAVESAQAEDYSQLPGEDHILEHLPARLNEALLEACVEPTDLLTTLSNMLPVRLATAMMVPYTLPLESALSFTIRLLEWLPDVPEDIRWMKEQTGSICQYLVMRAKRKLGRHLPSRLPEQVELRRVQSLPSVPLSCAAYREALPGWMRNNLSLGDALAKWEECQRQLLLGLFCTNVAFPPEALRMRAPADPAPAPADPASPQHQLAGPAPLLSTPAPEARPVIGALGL

SMILES	inhibition [1]	inhibition [2]	IC50 [3] [nM]
CN(C)C(=O)Nc1ccc(-c2cccc(N(C)C)c2)cc1	inactive	inactive	–
CN(C)C(=O)Nc1cccc(-c2cccc(N(C)C)c2)c1	inactive	inactive	–
CN(C)C(=O)Nc1ccc(-c2ccc(NC(=O)N(C)C)cc2)cc1	inactive	inactive	–
CN(C)C(=O)Nc1cccc(-c2ccc(N(C)C)cc2)c1	–	Active	700
CN(C)C(=O)Nc1ccc(NC(=O)N(C)C)cc1	inactive	inactive	–
CN(C)c1ccc(-c2ccccc2)cc1	inactive	inactive	–
CN(C)C(=O)Nc1ccc(N(C)C)cc1	inactive	–	–
CN(C)C(=O)Nc1cccc(-c2cccc(NC(=O)N(C)C)c2)c1	inactive	inactive	–
CN(C)C(=O)Nc1cccc(-c2ccccc2)c1	Active	Active	–
CN(C)C(=O)Nc1ccc(-c2ccc(N)cc2)cc1	inactive	–	–
CN(C)C(=O)Nc1ccc(-c2ccccc2)cc1	inactive	–	–
CN(C)c1cccc(-c2cccc(N(C)C)c2)c1	inactive	inactive	–
CN(C)C(=O)Nc1ccc(-c2ccc(N(C)C)cc2)cc1	inactive	inactive	–
CN(C)c1cccc(-c2ccccc2)c1	inactive	inactive	–
CN(C)c1ccc(N(C)C)cc1	inactive	inactive	–
CN(C)c1ccc(-c2ccc(N(C)C)cc2)cc1	inactive	inactive	–
CN(C)C(=O)Nc1cccc(N(C)C)c1	inactive	inactive	–
CN(C)c1cccc(N(C)C)c1	inactive	inactive	–
